The values that follow come from article PMC6812009, “Covalent Aurora A regulation by the metabolic integrator coenzyme A” (Redox Biology, 2019).

Common to all, as to test: Kinase profiling screen (radioactive filter-binding assay)
Holding throughout (type): biochemical

In one test the target is FGF-R1 (Homo sapiens, UniProt P11362). To be noted: for activity at 100 µM: 100 μM compound, 20 μM ATP, read-out: Kinase activity, % of activity in the absence of inhibitor. Put shortly: (§1)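 CoA, dpCoA and ADP were each tested in vitro, in duplicate, at 100 μM final concentration as part of a 117-kinase panel. Recombinant kinases were used with model substrates and optimal ATP concentrations.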

Another test has as its target PIM2 (Homo sapiens, UniProt Q9P1W9). As to conditions: 100 μM compound, 5 μM ATP; read-out: Kinase activity, % of activity in the absence of inhibitor. Put shortly:
as §1

For a further test, the target named is T1, DYRK3 (Homo sapiens, UniProt O43781).
T1 sequence (O43781 1-588): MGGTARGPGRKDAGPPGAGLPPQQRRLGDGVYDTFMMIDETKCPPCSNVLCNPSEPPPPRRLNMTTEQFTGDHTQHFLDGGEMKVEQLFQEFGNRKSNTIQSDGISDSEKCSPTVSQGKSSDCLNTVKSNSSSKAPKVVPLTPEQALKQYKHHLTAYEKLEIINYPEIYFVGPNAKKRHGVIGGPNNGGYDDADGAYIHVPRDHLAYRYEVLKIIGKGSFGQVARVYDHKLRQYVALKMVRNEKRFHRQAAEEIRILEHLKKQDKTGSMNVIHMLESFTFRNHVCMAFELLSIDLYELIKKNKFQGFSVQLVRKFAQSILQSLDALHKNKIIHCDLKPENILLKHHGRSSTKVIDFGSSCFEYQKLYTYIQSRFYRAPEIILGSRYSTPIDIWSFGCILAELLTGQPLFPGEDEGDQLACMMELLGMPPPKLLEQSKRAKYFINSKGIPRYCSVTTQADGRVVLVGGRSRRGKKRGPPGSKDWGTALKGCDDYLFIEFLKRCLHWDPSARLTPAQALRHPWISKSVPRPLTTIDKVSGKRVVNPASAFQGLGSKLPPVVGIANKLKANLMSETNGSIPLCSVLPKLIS
To be noted: 100 μM compound, 5 μM ATP; read-out: Kinase activity, % of activity in the absence of inhibitor. In short, it runs like this:
as §1

The target in a further test is p38α MAPK (Homo sapiens, UniProt Q16539). As to conditions: 100 μM compound, 50 μM ATP; read-out: Kinase activity, % of activity in the absence of inhibitor. Put shortly: as §1
Sequence of p38α MAPK (Q16539 whole entry): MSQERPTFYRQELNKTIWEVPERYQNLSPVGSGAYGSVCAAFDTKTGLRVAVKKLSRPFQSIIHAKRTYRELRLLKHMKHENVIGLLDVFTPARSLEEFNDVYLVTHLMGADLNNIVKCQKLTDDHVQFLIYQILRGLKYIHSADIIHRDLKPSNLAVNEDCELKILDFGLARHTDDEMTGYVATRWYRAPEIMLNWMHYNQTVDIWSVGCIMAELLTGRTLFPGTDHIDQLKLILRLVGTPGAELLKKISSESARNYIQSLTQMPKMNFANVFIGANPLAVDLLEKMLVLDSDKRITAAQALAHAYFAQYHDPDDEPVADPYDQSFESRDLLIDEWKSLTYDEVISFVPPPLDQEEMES
The next test addresses MAPKAP-K3 (Homo sapiens, UniProt Q16644). To be noted: 100 μM compound, 20 μM ATP; read-out: Kinase activity, % of activity in the absence of inhibitor. In short, it runs like this:
as §1

The target of the next test is MLK3 (Homo sapiens, UniProt Q16584). To be noted: 100 μM compound, 20 μM ATP; read-out: Kinase activity, % of activity in the absence of inhibitor. In short, it runs like this:
as §1

A further test deals with EF2K (Homo sapiens, UniProt O00418). As to conditions: 100 μM compound, 5 μM ATP; read-out: Kinase activity, % of activity in the absence of inhibitor. In short, it runs like this:
as §1

Another test concerns the target T2, TTK (Homo sapiens, UniProt P33981).
T2 sequence (P33981 1-857): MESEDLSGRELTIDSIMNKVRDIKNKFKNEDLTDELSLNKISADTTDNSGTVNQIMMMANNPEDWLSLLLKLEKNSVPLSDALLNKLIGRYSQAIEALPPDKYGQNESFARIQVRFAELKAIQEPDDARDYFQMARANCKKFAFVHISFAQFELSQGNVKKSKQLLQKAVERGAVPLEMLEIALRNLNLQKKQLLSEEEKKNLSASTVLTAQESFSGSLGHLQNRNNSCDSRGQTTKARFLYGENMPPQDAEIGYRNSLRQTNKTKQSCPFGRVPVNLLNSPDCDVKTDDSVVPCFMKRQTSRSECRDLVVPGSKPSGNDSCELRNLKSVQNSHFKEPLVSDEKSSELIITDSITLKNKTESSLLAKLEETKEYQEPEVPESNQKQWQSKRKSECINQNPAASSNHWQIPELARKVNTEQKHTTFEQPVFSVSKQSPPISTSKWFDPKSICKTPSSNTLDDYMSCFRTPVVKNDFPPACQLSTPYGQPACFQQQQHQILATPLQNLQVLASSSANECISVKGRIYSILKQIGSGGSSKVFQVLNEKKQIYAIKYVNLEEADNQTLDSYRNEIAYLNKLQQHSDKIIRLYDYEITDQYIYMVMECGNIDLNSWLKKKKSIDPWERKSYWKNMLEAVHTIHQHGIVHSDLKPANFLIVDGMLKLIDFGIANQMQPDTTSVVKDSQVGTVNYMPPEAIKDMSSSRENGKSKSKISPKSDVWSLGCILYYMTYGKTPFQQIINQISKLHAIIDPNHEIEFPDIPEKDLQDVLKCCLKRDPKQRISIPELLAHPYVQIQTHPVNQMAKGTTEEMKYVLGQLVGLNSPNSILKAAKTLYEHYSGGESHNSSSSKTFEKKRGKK
To be noted: 100 μM compound, 20 μM ATP; read-out: Kinase activity, % of activity in the absence of inhibitor. Put shortly: as §1

A further test concerns the target HER4 (Homo sapiens, UniProt Q15303). To be noted: 100 μM compound, 5 μM ATP; read-out: Kinase activity, % of activity in the absence of inhibitor. Put shortly:
as §1

In a further test the target is TIE2 (Homo sapiens, UniProt Q02763). To be noted: 100 μM compound, 20 μM ATP; read-out: Kinase activity, % of activity in the absence of inhibitor. In short, it runs like this: as §1
Sequence of TIE2 (Q02763 23-1124): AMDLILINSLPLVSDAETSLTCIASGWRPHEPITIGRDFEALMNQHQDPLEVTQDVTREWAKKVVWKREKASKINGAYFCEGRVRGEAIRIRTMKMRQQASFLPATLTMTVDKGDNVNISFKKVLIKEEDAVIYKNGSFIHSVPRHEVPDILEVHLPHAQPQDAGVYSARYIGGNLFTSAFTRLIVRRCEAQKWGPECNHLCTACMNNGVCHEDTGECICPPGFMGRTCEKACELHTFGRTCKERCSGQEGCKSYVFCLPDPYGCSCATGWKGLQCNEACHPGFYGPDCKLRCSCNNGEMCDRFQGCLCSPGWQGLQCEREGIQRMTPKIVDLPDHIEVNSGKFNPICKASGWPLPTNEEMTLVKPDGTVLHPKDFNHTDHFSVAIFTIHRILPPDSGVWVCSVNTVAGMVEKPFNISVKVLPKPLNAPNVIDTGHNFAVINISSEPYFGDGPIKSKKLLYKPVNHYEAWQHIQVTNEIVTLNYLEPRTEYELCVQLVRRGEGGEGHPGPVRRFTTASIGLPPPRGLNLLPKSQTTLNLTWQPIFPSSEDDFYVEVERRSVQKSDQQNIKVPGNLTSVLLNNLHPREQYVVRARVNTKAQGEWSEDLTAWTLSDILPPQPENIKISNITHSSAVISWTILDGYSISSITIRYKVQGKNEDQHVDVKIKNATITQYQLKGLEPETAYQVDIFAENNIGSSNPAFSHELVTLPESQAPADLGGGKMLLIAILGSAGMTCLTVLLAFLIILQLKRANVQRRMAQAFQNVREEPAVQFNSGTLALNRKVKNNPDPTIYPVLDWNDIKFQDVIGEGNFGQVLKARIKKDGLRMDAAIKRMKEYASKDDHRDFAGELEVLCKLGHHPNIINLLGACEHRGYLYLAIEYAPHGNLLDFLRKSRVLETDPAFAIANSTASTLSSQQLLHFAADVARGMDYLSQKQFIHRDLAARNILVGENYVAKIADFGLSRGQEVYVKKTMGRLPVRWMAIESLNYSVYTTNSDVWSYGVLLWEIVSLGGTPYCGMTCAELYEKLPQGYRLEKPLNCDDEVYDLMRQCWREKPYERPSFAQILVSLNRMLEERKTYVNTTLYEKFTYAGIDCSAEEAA
In the next test the target is HIPK3 (Homo sapiens, UniProt Q9H422). As to conditions: 100 μM compound, 20 μM ATP; read-out: Kinase activity, % of activity in the absence of inhibitor. Put shortly: as §1
A further test concerns the target BTK (Homo sapiens, UniProt Q06187). As to conditions: for activity at 100 µM: 100 μM compound, 50 μM ATP, read-out: Kinase activity, % of activity in the absence of inhibitor. In short, it runs like this: as §1
In the next test the target is CHK2 (Homo sapiens, UniProt O96017). As to conditions: 100 μM compound, 20 μM ATP; read-out: Kinase activity, % of activity in the absence of inhibitor. Put shortly: as §1
Sequence of CHK2 (O96017 whole entry): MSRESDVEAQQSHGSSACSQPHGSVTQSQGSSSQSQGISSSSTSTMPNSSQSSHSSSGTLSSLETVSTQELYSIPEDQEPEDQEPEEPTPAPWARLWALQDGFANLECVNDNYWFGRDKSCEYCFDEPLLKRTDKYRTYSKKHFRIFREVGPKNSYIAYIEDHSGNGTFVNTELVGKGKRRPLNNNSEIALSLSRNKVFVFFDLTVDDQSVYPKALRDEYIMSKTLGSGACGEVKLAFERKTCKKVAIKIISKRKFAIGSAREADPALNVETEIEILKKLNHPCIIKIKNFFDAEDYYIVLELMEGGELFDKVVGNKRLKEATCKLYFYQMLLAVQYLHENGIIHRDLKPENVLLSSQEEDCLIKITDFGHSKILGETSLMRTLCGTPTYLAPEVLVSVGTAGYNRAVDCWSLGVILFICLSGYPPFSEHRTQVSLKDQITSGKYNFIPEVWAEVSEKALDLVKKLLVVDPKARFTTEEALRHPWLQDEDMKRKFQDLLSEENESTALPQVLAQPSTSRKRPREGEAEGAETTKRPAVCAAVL
A further test has as its target MINK1 (Homo sapiens, UniProt Q8N4C8). As to conditions: 100 μM compound, 50 μM ATP; read-out: Kinase activity, % of activity in the absence of inhibitor. Put shortly: as §1
The next test has as its target MSPK1 (Homo sapiens, UniProt O75716). To be noted: 100 μM compound, 50 μM ATP; read-out: Kinase activity, % of activity in the absence of inhibitor. Put shortly: as §1
The target of another test is ERK1 (Homo sapiens, UniProt P27361). To be noted: 100 μM compound, 5 μM ATP; read-out: Kinase activity, % of activity in the absence of inhibitor. Put shortly:
as §1

Sequence of MLK3 (Q16584 whole entry): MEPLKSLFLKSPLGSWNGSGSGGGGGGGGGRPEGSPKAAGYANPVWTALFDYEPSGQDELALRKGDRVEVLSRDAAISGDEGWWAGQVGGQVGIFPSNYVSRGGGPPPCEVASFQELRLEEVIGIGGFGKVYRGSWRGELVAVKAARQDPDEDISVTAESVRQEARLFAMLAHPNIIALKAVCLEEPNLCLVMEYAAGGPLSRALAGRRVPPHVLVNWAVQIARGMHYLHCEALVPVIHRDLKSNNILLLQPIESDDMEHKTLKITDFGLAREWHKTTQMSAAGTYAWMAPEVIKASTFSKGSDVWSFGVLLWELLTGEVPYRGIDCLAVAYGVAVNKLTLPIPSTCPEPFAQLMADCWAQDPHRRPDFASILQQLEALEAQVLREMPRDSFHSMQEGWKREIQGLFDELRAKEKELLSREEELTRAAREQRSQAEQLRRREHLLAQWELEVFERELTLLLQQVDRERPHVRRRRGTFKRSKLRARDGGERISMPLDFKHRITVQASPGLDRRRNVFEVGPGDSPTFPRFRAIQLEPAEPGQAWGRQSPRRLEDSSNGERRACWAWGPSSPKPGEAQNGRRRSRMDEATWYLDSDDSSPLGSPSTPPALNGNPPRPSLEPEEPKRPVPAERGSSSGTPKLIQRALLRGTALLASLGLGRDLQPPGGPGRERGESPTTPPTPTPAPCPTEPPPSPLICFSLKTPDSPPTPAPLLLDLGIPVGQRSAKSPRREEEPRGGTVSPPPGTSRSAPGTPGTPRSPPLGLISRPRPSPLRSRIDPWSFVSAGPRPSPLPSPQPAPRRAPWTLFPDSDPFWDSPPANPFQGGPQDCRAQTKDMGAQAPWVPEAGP
Sequence of MSPK1 (O75716 whole entry): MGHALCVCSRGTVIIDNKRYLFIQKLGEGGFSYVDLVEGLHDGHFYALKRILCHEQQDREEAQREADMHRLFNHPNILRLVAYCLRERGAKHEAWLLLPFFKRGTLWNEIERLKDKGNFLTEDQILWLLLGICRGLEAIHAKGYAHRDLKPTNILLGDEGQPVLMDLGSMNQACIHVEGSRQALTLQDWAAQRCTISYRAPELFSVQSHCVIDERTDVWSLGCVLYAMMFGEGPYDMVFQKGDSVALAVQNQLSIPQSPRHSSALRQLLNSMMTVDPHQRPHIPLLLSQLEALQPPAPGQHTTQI
Sequence of MINK1 (Q8N4C8 whole entry): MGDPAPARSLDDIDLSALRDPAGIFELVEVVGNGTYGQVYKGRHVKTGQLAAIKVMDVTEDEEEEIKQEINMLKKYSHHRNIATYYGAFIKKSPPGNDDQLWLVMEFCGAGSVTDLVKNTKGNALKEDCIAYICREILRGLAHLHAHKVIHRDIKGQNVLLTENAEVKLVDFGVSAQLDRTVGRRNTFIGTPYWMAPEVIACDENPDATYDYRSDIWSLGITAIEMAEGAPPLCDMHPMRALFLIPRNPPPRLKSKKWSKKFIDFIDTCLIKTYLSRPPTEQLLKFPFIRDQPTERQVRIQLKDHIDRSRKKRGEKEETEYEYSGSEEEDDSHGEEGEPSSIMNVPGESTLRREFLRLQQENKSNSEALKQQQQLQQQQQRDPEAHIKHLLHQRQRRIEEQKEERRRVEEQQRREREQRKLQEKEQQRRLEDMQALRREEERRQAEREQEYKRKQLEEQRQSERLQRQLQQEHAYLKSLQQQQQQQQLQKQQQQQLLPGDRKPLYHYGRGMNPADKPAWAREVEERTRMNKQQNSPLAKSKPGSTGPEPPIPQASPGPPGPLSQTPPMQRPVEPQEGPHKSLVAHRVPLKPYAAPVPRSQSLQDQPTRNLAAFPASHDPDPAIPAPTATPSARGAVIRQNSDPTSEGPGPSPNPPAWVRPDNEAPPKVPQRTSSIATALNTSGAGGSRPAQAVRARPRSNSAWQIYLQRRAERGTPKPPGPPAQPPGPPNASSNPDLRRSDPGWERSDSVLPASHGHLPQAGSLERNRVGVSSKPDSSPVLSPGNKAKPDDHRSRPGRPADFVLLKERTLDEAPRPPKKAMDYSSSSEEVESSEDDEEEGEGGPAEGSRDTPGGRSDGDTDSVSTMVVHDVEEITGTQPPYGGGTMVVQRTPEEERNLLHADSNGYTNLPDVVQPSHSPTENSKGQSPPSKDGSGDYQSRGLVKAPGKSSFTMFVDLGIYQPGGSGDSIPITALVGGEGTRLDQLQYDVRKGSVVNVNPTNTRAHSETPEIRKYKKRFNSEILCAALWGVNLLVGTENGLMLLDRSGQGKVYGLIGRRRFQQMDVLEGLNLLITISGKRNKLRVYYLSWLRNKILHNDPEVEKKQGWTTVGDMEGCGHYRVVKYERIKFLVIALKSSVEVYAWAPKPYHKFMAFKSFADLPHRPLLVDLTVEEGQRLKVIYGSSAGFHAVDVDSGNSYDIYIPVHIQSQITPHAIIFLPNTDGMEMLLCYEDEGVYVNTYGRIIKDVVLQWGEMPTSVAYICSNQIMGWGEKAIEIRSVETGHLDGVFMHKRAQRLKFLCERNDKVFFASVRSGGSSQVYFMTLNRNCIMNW
Sequence of MAPKAP-K3 (Q16644 whole entry): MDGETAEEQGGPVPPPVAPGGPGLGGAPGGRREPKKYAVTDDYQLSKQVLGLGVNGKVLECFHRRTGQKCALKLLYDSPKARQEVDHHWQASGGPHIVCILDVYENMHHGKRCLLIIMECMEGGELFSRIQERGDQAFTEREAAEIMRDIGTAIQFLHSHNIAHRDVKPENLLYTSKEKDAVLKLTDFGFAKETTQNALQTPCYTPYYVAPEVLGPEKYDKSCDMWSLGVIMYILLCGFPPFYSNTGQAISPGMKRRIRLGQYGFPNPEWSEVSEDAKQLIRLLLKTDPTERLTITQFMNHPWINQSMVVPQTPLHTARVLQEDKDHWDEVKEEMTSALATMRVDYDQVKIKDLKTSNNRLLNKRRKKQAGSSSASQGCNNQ

`Nc1ncnc2c1ncn2C1OC(COP(=O)(O)OP(=O)(O)O)C(O)C1O` (centres unmarked) [ADP]: the activity at 100 µM on FGF-R1 worked out at 41.7%; on PIM2, 9.8%; at DYRK3, 16.2%; at p38α MAPK, 60.3%; at MAPKAP-K3 it was 25.7%; at MLK3, 46.8%. Moreover, the activity at 100 µM turned out to be 86.2% on EF2K; 54.7% on TTK; 29.1% on HER4; 33.1% at TIE2; 34.2% at HIPK3; 18.2% on BTK. Further, the activity at 100 µM turned out to be 43.2% on CHK2, 49.4% on MINK1, 94.1% on MSPK1 and 67.7% at ERK1.
With `CC(C)(COP(=O)(O)OP(=O)(O)OC[C@H]1O[C@@H](n2cnc3c(N)ncnc32)[C@H](O)[C@@H]1OP(=O)(O)O)[C@@H](O)C(=O)NCCC(=O)NCCS` [CoA, Coenzyme A], the activity at 100 µM at FGF-R1 is 60%; on PIM2, 111%; on DYRK3, 95.1%; at p38α MAPK, 112%; at MAPKAP-K3, 98.4%; on MLK3, 70.2%. Besides, the activity at 100 µM on EF2K turned out to be 67.1%; at TTK, 101%; on HER4 it was 100%; on TIE2, 93%; at HIPK3, 123%; at BTK it was 67.9%. Further, the activity at 100 µM on CHK2 amounted to 88.9%; at MINK1, 106%; at MSPK1, 102%; on ERK1, 118%. The “FGFR1 inhibition (in words)” value at FGF-R1 (kinase profiling, 100 μM) is given as “modestly inhibited”. Moreover, the “BTK inhibition (in words)” value on BTK (kinase profiling, 100 μM) is listed as “modestly inhibited”.
For `CC(C)(COP(=O)(O)OP(=O)(O)OCC1OC(n2cnc3c(N)ncnc32)C(O)C1O)C(O)C(=O)NCCC(=O)NCCS` (centres unmarked) [dpCoA, dephospho-CoA], the activity at 100 µM is 31.4% on FGF-R1; 62.9% on PIM2; 91.2% at DYRK3; 87.7% at p38α MAPK; 63% at MAPKAP-K3; 61.9% at MLK3. The activity at 100 µM on EF2K amounted to 103%; on TTK, 75.8%; on HER4 it was 75.7%; at TIE2, 83.4%; on HIPK3, 91.5%; on BTK, 30.6%. Besides, the activity at 100 µM at CHK2 came to 56%; at MINK1, 104%; on MSPK1, 102%; on ERK1, 114%.
